Publication PMC12903969, “Discovery of a Novel and Potent Kir4.1 Inhibitor as a Safe and Rapid‐Onset Antidepressant Agent in Mice” (Advanced Science, 2025)
Like-named read-outs stand apart in the source and are kept apart here.

What was measured:
[1] = test system: MDA-MB-468 breast cancer cells; experiment: Cytotoxicity test (CCK-8); assay type: cell-based; conditions: read-out: IC50 ± SD (μM) for MDA-MB-468 Inhibition
Method: Cytotoxicity of all the tested compounds was determined using the cell counting kit‐8 (CCK‐8) assay kit (Beyotime, Shanghai, China). Briefly, MDA‐MB‐468 was cultured in L15 medium and plated in 96‐well plates at a density of 12,000 cells per well for 24 h at 37 °C in a 5% CO2 incubator. The tested compounds were dissolved in DMSO and diluted with culture medium (DMSO final concentration < 0.4%). Then the cells were treated with compounds (0.41, 1.23, 3.70, 11.11, 33.33, 100.00 µM) for 48 h. After treatments, removal of the supernatant liquor, 100 µL of new media diluted CCK‐8 solution (10% CCK‐8) was added into each well and incubated at 37 °C for 2 h. The absorbance of the mixture was directly measured at 450 nm. The results are presented as a percentage of the control.

[2] = target: T1, Kir4.1 (Homo sapiens, UniProt P78508); experiment: Whole-cell patch clamp, Kir4.1 currents in transfected CHO-K1 cells; assay type: cell-based; conditions: for inhibition at 1 µM: CHO-K1, 1 μM; for inhibition at 10 µM: CHO-K1, 10 μM
T1 construct: host or cells: CHO-K1
T1 sequence (P78508 1-379): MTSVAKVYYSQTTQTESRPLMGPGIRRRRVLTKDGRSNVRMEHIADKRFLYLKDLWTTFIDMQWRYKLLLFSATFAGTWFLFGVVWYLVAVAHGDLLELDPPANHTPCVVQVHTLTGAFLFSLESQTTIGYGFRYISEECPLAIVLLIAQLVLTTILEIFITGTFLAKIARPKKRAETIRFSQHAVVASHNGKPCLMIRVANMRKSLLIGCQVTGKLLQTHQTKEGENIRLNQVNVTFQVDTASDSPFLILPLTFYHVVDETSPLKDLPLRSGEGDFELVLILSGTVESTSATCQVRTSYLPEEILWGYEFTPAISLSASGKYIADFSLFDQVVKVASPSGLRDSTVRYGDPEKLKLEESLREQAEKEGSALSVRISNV
Method: Plasmids encoding WT human potassium channels Kir1.1, Kir2.1, Kir2.2, Kir4.1, and Kir4.2 were obtained from the Beijing Genomics Institute. All point mutations were constructed using the QuickChange II Site‐Directed Mutagenesis Kit (Stratagene) and subsequently verified by sequencing.
CHO‐K1 cells were maintained in DMEM/F12 growth medium containing 10% fetal bovine serum. Plasmids encoding the target genes (3600 ng) and enhanced green fluorescent protein (400 ng) were cotransfected into cells using Lipofectamine 2000 (Invitrogen) in accordance with the manufacturer's instructions. Cells were seeded onto poly‐d‐lysine (PDL)‐coated glass coverslips 1 h prior to electrophysiological recordings. All cells were cultured under standard conditions of 5% CO2 at 37 °C.
Whole‐cell patch‐clamp recordings were obtained either in transiently transfected CHO‐K1 cells or in primary cultured astrocytes at room temperature using standard patch‐clamp techniques with an Axopatch‐700B amplifier (Axon Instruments). The signals were filtered at 2 kHz and sampled at 20 kHz using the Digidata 1440A interface (Axon Instruments). The resistance of borosilicate glass pipettes was typically 2–4 MΩ when filled with the internal solution. Drug application was facilitated using a BPS perfusion system (ALA Scientific Instruments). Macroscopic currents generated by expressed potassium channels were recorded under the voltage‐clamp conditions with an internal pipette solution composed of (in mM): 140 KCl, 5 NaCl, 1 CaCl2, 1 MgCl2, 10 HEPES, and 10 EGTA, pH 7.2 adjusted with KOH. The external solution contained (in mM): 140 NaCl, 5 KCl, 2 CaCl2, 1 MgCl2, 10 glucose, and 10 HEPES, pH 7.4 adjusted with NaOH. Currents were elicited with a hyperpolarized voltage at −120 mV from the holding potential of −80 mV, followed by a ramp voltage depolarizing to +50 mV. Astrocytic resting membrane potentials were recorded under current‐clamp conditions (I = 0 pA) using standard internal and external solutions, determined immediately after achieving whole‐cell mode.

[3] = Homo sapiens, MDA-MB-468, MDA-MB-468 breast cancer cells
[4] = +50 mV, read-out: Kir4.1 Inhibition ± SD (%) at 1 μM, +50 mV
[5] = -120 mV, read-out: Kir4.1 Inhibition ± SD (%) at 1 μM, -120 mV
[6] = +50 mV, read-out: Kir4.1 Inhibition ± SD (%) at 10 μM, +50 mV
[7] = -120 mV, read-out: Kir4.1 Inhibition ± SD (%) at 10 μM, -120 mV

SMILES | inhibition at 1 µM [2, 4] | inhibition at 1 µM [2, 5] | inhibition at 10 µM [2, 6] | inhibition at 10 µM [2, 7] | Kir4.1 Inhibition ± SD (%) at 10 μM, +50 mV ([2]; +50 mV, 10 µM) | Kir4.1 Inhibition ± SD (%) at 10 μM, -120 mV ([2]; -120 mV) | Kir4.1 Inhibition ± SD (%) at 1 μM, +50 mV ([2]; +50 mV) | Kir4.1 Inhibition ± SD (%) at 1 μM, -120 mV ([2]; -120 mV) | Kir4.1 Inhibition ± SD (%) at 10 μM, +50 mV ([2]; +50 mV) | IC50 [1, 3] | IC50 ([1]; MDA-MB-468 breast cancer cells)
CC(CNc1nccc(Nc2ccc3oc4ccccc4c3c2)n1)CN1CCOCC1 (stereo not drawn) [JX3233, N^4-(dibenzo[b,d]furan-2-yl)-N^2-(2-methyl-3-morpholinopropyl)pyrimidine-2,4-diamine] | 4.34 ± 8.43% | 2.58 ± 3.95% | 92.2 ± 1.15% | 97.2 ± 1.69% | – | – | – | – | – | 10.44 ± 0.01 µM | –
OC(CNc1nccc(Nc2ccc3oc4ccccc4c3c2)n1)CN1CCOCC1 (stereo not drawn) [JX3234, 1-((4-(dibenzo[b,d]furan-2-ylamino)pyrimidin-2-yl)amino)-3-morpholinopropan-2-ol] | 11.2 ± 5.26% | 5.91 ± 6.31% | 94.83 ± 0.75% | 88.4 ± 2.42% | – | – | – | – | – | 17.1 ± 0.83 µM | –
c1ccc2c(c1)oc1ccc(Nc3ccnc(NCC4(CN5CCOCC5)CC4)n3)cc12 [JX3235, N^4-(dibenzo[b,d]furan-2-yl)-N^2-((1-(morpholinomethyl)cyclopropyl)methyl)pyrimidine-2,4-diamine] | 10.8 ± 2.21% | 6.83 ± 3.85% | 92.4 ± 3.68% | 85.4 ± 5.46% | – | – | – | – | – | 11.3 ± 0.32 µM | –
O=C(NCCNc1nccc(Nc2ccc3oc4ccccc4c3c2)n1)N1CCOCC1 [JX3236, N-(2-((4-(dibenzo[b,d]furan-2-ylamino)pyrimidin-2-yl)amino)ethyl)morpholine-4-carboxamide] | 5 ± 5.21% | -4.25 ± 7.82% | 89.24 ± 0.5% | 70.8 ± 2.5% | – | – | – | – | – | 21.9 ± 1.01 µM | –
CC(C)(C)OC(=O)NCCCNc1nccc(Nc2ccc3oc4ccccc4c3c2)n1 [JX3237, tert-butyl (3-((4-(dibenzo[b,d]furan-2-ylamino)pyrimidin-2-yl)amino)propyl)carbamate] | 12.5 ± 7.25% | 7.65 ± 4.73% | 89.1 ± 3.59% | 73.8 ± 0.93% | – | – | – | – | – | 4.84 ± 0.06 µM | –
CCN(CC)CCCNc1nccc(Nc2ccc3oc4ccccc4c3c2)n1 [JX3238, N^4-(dibenzo[b,d]furan-2-yl)-N^2-(3-(diethylamino)propyl)pyrimidine-2,4-diamine] | 27 ± 12.3% | 2.21 ± 3.14% | 98.5 ± 0.23% | 93.1 ± 2.15% | – | – | – | – | – | 10.3 ± 3.8 µM | –
c1ccc2c(c1)oc1ccc(Nc3ccnc(NCCCN4CCCC4)n3)cc12 [JX3239, N^4-(dibenzo[b,d]furan-2-yl)-N^2-(3-(pyrrolidin-1-yl)propyl)pyrimidine-2,4-diamine] | 53.2 ± 3.51% | 36.4 ± 5.31% | 96 ± 2.25% | 90.9 ± 4.5% | – | – | – | – | – | 11.1 ± 0.81 µM | –

Now from value to molecule, other results behind:

inhibition at 1 µM [2, 4] | inhibition at 1 µM [2, 5] | inhibition at 10 µM [2, 6] | inhibition at 10 µM [2, 7] | Kir4.1 Inhibition ± SD (%) at 10 μM, +50 mV ([2]; +50 mV, 10 µM) | Kir4.1 Inhibition ± SD (%) at 10 μM, -120 mV ([2]; -120 mV) | Kir4.1 Inhibition ± SD (%) at 1 μM, +50 mV ([2]; +50 mV) | Kir4.1 Inhibition ± SD (%) at 1 μM, -120 mV ([2]; -120 mV) | Kir4.1 Inhibition ± SD (%) at 10 μM, +50 mV ([2]; +50 mV) | SMILES | IC50 [1, 3] | IC50 ([1]; MDA-MB-468 breast cancer cells)
5.55 ± 2.74% | -0.94 ± 6.65% | 87.3 ± 6.4% | 71.1 ± 6.03% | – | – | – | – | – | c1ccc2c(c1)oc1ccc(Nc3cc(NCCCN4CCOCC4)ncn3)cc12 [JX3222, N^4-(dibenzo[b,d]furan-2-yl)-N^6-(3-morpholinopropyl)pyrimidine-4,6-diamine] | 44 ± 1.48 µM | –
– | – | – | – | 7.01 ± 4.11% | 6.62 ± 0.29% | – | – | – | c1ccc2c(c1)oc1ccc(Nc3cncc(NCCCN4CCOCC4)n3)cc12 [JX3223, N^2-(dibenzo[b,d]furan-2-yl)-N^6-(3-morpholinopropyl)pyrazine-2,6-diamine] | 23 ± 3.41 µM | –
29.1 ± 11.8% | 11.3 ± 5.07% | – | – | 96.66 ± 1.05% | 87.90 ± 2.73% | – | – | – | c1ccc2c(c1)oc1ccc(Nc3cncc(NCCCN4CCOCC4)n3)cc12 [JX3224, N^2-(dibenzo[b,d]furan-2-yl)-N^6-(3-morpholinopropyl)pyrazine-2,6-diamine] | – | 21.6 ± 0.8 µM
3.73 ± 5.09% | 8.36 ± 3.94% | 96.9 ± 1.28% | 94.3 ± 2.6% | – | – | – | – | – | c1ccc2c(c1)oc1ccc(Nc3cnc(NCCCN4CCOCC4)cn3)cc12 [JX3225, N^2-(dibenzo[b,d]furan-2-yl)-N^5-(3-morpholinopropyl)pyrazine-2,5-diamine] | 31.6 ± 5.27 µM | –
– | – | – | – | – | 86.98 ± 0.69% | 3.35 ± 4.46% | 6.91 ± 6.13% | 94.03 ± 1.98% | c1ccc2c(c1)oc1ccc(N[C@H]3CC[C@@H](NCCCN4CCOCC4)CC3)cc12 [JX3226, (1s,4s)-N^1-(dibenzo[b,d]furan-2-yl)-N^4-(3-morpholinopropyl)cyclohexane-1,4-diamine] | – | 19.5 ± 1.64 µM
– | – | – | – | – | 64.42 ± 3.05% | 9.02 ± 5.70% | 7.11 ± 1.17% | 88.04 ± 4.11% | c1ccc2c(c1)oc1ccc(NC34C[C@@H]5C[C@@H](CC(NCCCN6CCOCC6)(C5)C3)C4)cc12 [JX3227, (1s,3r,5R,7S)-N^1-(dibenzo[b,d]furan-2-yl)-N^3-(3-morpholinopropyl)adamantane-1,3-diamine] | – | > 50 µM
18.4 ± 3.79% | 0.88 ± 2.32% | 73 ± 3.72% | 17.1 ± 6.3% | – | – | – | – | – | c1ccc2c(c1)oc1ccc(NC3CC4(CCN(CCCN5CCOCC5)CC4)C3)cc12 [JX3228, N-(dibenzo[b,d]furan-2-yl)-7-(3-morpholinopropyl)-7-azaspiro[3.5]nonan-2-amine] | 11.2 ± 0.74 µM | –
– | – | 26.8 ± 9.64% | 4.9 ± 7.34% | – | – | – | – | – | c1ccc2c(c1)oc1ccc(N3CCC4(CC3)CN(CCCN3CCOCC3)C4)cc12 [JX3229, 4-(3-(7-(dibenzo[b,d]furan-2-yl)-2,7-diazaspiro[3.5]nonan-2-yl)propyl)morpholine] | 29.5 ± 1.09 µM | –
– | – | 63.3 ± 6.48% | 15.6 ± 0.73% | – | – | – | – | – | c1ccc2c(c1)oc1ccc(N3CCC4(CCN(CCCN5CCOCC5)CC4)CC3)cc12 [JX3230, 4-(3-(9-(dibenzo[b,d]furan-2-yl)-3,9-diazaspiro[5.5]undecan-3-yl)propyl)morpholine] | > 50 µM | –
7.39 ± 3.45% | 4.14 ± 5.52% | 96.3 ± 1.23% | 90.5 ± 2.35% | – | – | – | – | – | c1ccc2c(c1)oc1ccc(Nc3ccnc(OCCCN4CCOCC4)n3)cc12 [JX3231, N-(dibenzo[b,d]furan-2-yl)-2-(3-morpholinopropoxy)pyrimidin-4-amine] | 19.7 ± 0.5 µM | –
6.81 ± 4.5% | -2.25 ± 0.47% | 96.94 ± 0.69% | 93.2 ± 1.48% | – | – | – | – | – | CN(CCCN1CCOCC1)c1nccc(Nc2ccc3oc4ccccc4c3c2)n1 [JX3232, N^4-(dibenzo[b,d]furan-2-yl)-N^2-methyl-N^2-(3-morpholinopropyl)pyrimidine-2,4-diamine] | 6.77 ± 0.68 µM | –
